Data taken from patent publication US20090176811A1, “Substituted 5,6,7,8-Tetrahydro-pyrido[4,3-d]pyrimidine-2-yl Compounds and 5,6,7,8-Tetrahydro-quinazoline-2-yl Compounds” (GRUENENTHAL GmbH, priority 2004, published 2009).

Test system: batrachotoxin (BTX) binding site of the sodium channel
Test: Affinity for the batrachotoxin (BTX) binding site of the sodium channel ([3H]-Batrachotoxinin A20 benzoate, rat cerebrocortex synaptosomes)
Conditions: [3H]-Batrachotoxinin A20 benzoate 10 nM, test concentration not given

| SMILES | BTX inhibition |
| --- | --- |
| O=C(Nc1ncc2c(n1)CCN(C(=O)c1ccc(F)cc1F)C2)c1ccc(Cl)cc1 [Example 152, 4-chloro-N-[6-(2,4-difluoro-benzoyl)-5,6,7,8-tetrahydro-pyrido[4,3-d]pyrimidin-2-yl]-benzamide] | 55 |
| CCCC(=O)Nc1ncc2c(n1)CCC(NC(=O)C=Cc1cccc(C(F)(F)F)c1)C2 (stereo not shown) [Example 168, N-(2-butyrylamino-5,6,7,8-tetrahydro-quinazolin-6-yl)-3-(3-trifluoromethyl-phenyl)-acrylamide] | 39 |
| CC(C)C(NC(=O)OCC1c2ccccc2-c2ccccc21)C(=O)NC1CCc2nc(NC(=O)c3cccs3)ncc2C1 (stereo not shown) [Example 139, (2-methyl-1-{2-[(thiophene-2-carbonyl)-amino]-5,6,7,8-tetrahydro-quinazolin-6-ylcarbamoyl}-propyl)-carbamic acid 9H-fluoren-9-ylmethyl ester] | 62 |
| Cc1cc(C)c(C)c(S(=O)(=O)N2CCc3nc(NC(=O)c4cccs4)ncc3C2)c1C [Example 99, thiophene-2-carboxylic acid [6-(2,3,5,6-tetramethyl-benzenesulfonyl)-5,6,7,8-tetrahydro-pyrido[4,3-d]pyrimidin-2-yl]-amide] | 78 |
| CCCC(=O)Nc1ncc2c(n1)CCC(NS(=O)(=O)c1ccc(C(C)(C)CC)cc1)C2 (stereo not shown) [Example 167, N-{6-[4-(1,1-dimethyl-propyl)-benzenesulfonylamino]-5,6,7,8-tetrahydro-quinazolin-2-yl}-butyramide] | 51 |
| O=C(Nc1ncc2c(n1)CCC(NS(=O)(=O)c1ccc3c(c1)CN(C(=O)C(F)(F)F)CC3)C2)c1cccs1 (stereo not shown) [Example 147, thiophene-2-carboxylic acid {6-[2-(2,2,2-trifluoro-acetyl)-1,2,3,4-tetrahydro-isoquinoline-7-sulfonylamino]-5,6,7,8-tetrahydro-quinazolin-2-yl}-amide] | 48 |
| O=C(Nc1ncc2c(n1)CCN(S(=O)(=O)c1ccc(Cl)cc1)C2)c1ccc(Cl)c(Cl)c1 [Example 71, 3,4-dichloro-N-[6-(4-chloro-benzenesulfonyl)-5,6,7,8-tetrahydro-pyrido[4,3-d]pyrimidin-2-yl]-benzamide] | 69 |
| O=C(Nc1ncc2c(n1)CCN(C(=O)C1=Cc3ccccc3OC1)C2)c1ccc(F)c(F)c1 [Example 175, N-[6-(2H-chromene-3-carbonyl)-5,6,7,8-tetrahydro-pyrido[4,3-d]pyrimidin-2-yl]-3,4-difluoro-benzamide] | 49 |
| CCc1ccc(C(=O)Nc2ncc3c(n2)CCN(S(=O)(=O)c2ccc(OC)cc2)C3)cc1 [Example 172, 4-ethyl-N-[6-(4-methoxy-benzenesulfonyl)-5,6,7,8-tetrahydro-pyrido[4,3-d]pyrimidin-2-yl]-benzamide] | 57 |
| COc1ccccc1C(=O)Nc1ncc2c(n1)CCN(S(=O)(=O)c1c(C)cc(OC)c(C)c1C)C2 [Example 158, 2-methoxy-N-[6-(4-methoxy-2,3,6-trimethyl-benzenesulfonyl)-5,6,7,8-tetrahydro-pyrido[4,3-d]pyrimidin-2-yl]-benzamide] | 74 |
| O=C(Nc1ncc2c(n1)CCN(C(=O)c1cccc(F)c1)C2)c1cccc2ccccc12 [Example 183, naphthalene-1-carboxylic acid [6-(3-fluoro-benzoyl)-5,6,7,8-tetrahydro-pyrido[4,3-d]pyrimidin-2-yl]-amide] | 31 |
| Cc1cc(C)c(S(=O)(=O)N2CCc3nc(NC(=O)c4ccc(Cl)c(Cl)c4)ncc3C2)c(C)c1 [Example 95, 3,4-dichloro-N-[6-(2,4,6-trimethyl-benzenesulfonyl)-5,6,7,8-tetrahydro-pyrido[4,3-d]pyrimidin-2-yl]-benzamide] | 77 |
| Cc1ccc(C(=O)Nc2ncc3c(n2)CCN(C(=O)COc2cccc(Cl)c2)C3)cc1 [Example 189, N-{6-[2-(3-chloro-phenoxy)-acetyl]-5,6,7,8-tetrahydro-pyrido[4,3-d]pyrimidin-2-yl}-4-methyl-benzamide] | 55 |
| O=C(Nc1ncc2c(n1)CCN(S(=O)(=O)c1ccc(Cl)s1)C2)c1cccc2ccccc12 [Example 117, naphthalene-1-carboxylic acid [6-(5-chloro-thiophene-2-sulfonyl)-5,6,7,8-tetrahydro-pyrido[4,3-d]pyrimidin-2-yl]-amide] | 37 |
| CCc1ccc(C(=O)Nc2ncc3c(n2)CCN(C(=O)c2ccc(-n4cccn4)cc2)C3)cc1 [Example 74, 4-ethyl-N-[6-(4-pyrazol-1-yl-benzoyl)-5,6,7,8-tetrahydro-pyrido[4,3-d]pyrimidin-2-yl]-benzamide] | 66 |
| Cc1nc(C)c(S(=O)(=O)N2CCc3nc(NC(=O)c4ccc(Cl)cc4)ncc3C2)s1 [Example 79, 4-chloro-N-[6-(2,4-dimethyl-thiazole-5-sulfonyl)-5,6,7,8-tetrahydro-pyrido[4,3-d]pyrimidin-2-yl]-benzamide] | 34 |
| O=C(Nc1ncc2c(n1)CCN(S(=O)(=O)c1ccc(OC(F)(F)F)cc1)C2)c1ccc(Cl)c(Cl)c1 [Example 134, 3,4-dichloro-N-[6-(4-trifluoromethoxy-benzenesulfonyl)-5,6,7,8-tetrahydro-pyrido[4,3-d]pyrimidin-2-yl]-benzamide] | 64 |

| SMILES | BTX inhibition |
| --- | --- |
| CCc1ccc(C(=O)Nc2ncc3c(n2)CCN(C(=O)c2ccc(Cl)c(Cl)c2)C3)cc1 [Example 101, N-[6-(3,4-dichloro-benzoyl)-5,6,7,8-tetrahydro-pyrido[4,3-d]pyrimidin-2-yl]-4-ethyl-benzamide] | 68 |
| Cc1cccc(C(=O)Nc2ncc3c(n2)CCN(S(=O)(=O)c2sc(C)nc2C)C3)c1 [Example 68, N-[6-(2,4-dimethyl-thiazole-5-sulfonyl)-5,6,7,8-tetrahydro-pyrido[4,3-d]pyrimidin-2-yl]-3-methyl-benzamide] | 35 |
| Cc1ccc([N+](=O)[O-])cc1S(=O)(=O)N1CCc2nc(NC(=O)c3ccccc3F)ncc2C1 [Example 150, 2-fluoro-N-[6-(2-methyl-5-nitro-benzenesulfonyl)-5,6,7,8-tetrahydro-pyrido[4,3-d]pyrimidin-2-yl]-benzamide] | 49 |
| COc1ccccc1C(=O)Nc1ncc2c(n1)CCN(S(=O)(=O)c1ccc(Cl)s1)C2 [Example 86, N-[6-(5-chloro-thiophene-2-sulfonyl)-5,6,7,8-tetrahydro-pyrido[4,3-d]pyrimidin-2-yl]-2-methoxy-benzamide] | 62 |
| CCCC(=O)Nc1ncc2c(n1)CCC(NC(=O)c1ccc(Cc3ccccc3)o1)C2 (stereo not shown) [Example 133, 5-benzyl-furan-2-carboxylic acid (2-butyrylamino-5,6,7,8-tetrahydro-quinazolin-6-yl)-amide] | 39 |
| Cc1ccc(S(=O)(=O)N2CCc3nc(NC(=O)c4cccc(F)c4)ncc3C2)cc1 [Example 143, 3-fluoro-N-[6-(toluene-4-sulfonyl)-5,6,7,8-tetrahydro-pyrido[4,3-d]pyrimidin-2-yl]-benzamide] | 61 |
| CCOc1ccccc1C(=O)Nc1ncc2c(n1)CCN(C(=O)c1sccc1Cl)C2 [Example 145, N-[6-(3-chloro-thiophene-2-carbonyl)-5,6,7,8-tetrahydro-pyrido[4,3-d]pyrimidin-2-yl]-2-ethoxy-benzamide] | 46 |
| O=C(Nc1ncc2c(n1)CCN(C(=O)c1sc3ccccc3c1Cl)C2)c1cccs1 [Example 110, thiophene-2-carboxylic acid [6-(3-chloro-benzo[b]thiophene-2-carbonyl)-5,6,7,8-tetrahydro-pyrido[4,3-d]pyrimidin-2-yl]-amide] | 40 |
| O=C(Nc1ncc2c(n1)CCN(C(=O)c1ccc(OC(F)(F)F)cc1)C2)c1cc(Cl)cc(Cl)c1 [Example 192, 3,5-dichloro-N-[6-(4-trifluoromethoxy-benzoyl)-5,6,7,8-tetrahydro-pyrido[4,3-d]pyrimidin-2-yl]-benzamide] | 87 |
| Cc1ccc(C(=O)Nc2ncc3c(n2)CCN(S(=O)(=O)c2cc(F)ccc2C)C3)cc1 [Example 107, N-[6-(5-fluoro-2-methyl-benzenesulfonyl)-5,6,7,8-tetrahydro-pyrido[4,3-d]pyrimidin-2-yl]-4-methyl-benzamide] | 73 |
| O=C(Nc1ncc2c(n1)CCN(C(=O)c1ccc3ccccc3c1)C2)c1ccc(Cl)cc1 [Example 69] | 64 |
| O=C(Nc1ncc2c(n1)CCN(C(=O)c1c(F)cccc1Cl)C2)c1cccc(Cl)c1 [Example 127, 3-chloro-N-[6-(2-chloro-6-fluoro-benzoyl)-5,6,7,8-tetrahydro-pyrido[4,3-d]pyrimidin-2-yl]-benzamide] | 30 |
| CCCCC(C)CCC(=O)N1CCc2nc(NC(=O)c3cccc4ccccc34)ncc2C1 (stereo not shown) [Example 193, naphthalene-1-carboxylic acid [6-(4-methyl-octanoyl)-5,6,7,8-tetrahydro-pyrido[4,3-d]pyrimidin-2-yl]-amide] | 84 |
| CCc1ccc(C(=O)Nc2ncc3c(n2)CCN(S(=O)(=O)c2ccsc2)C3)cc1 [Example 121, 4-ethyl-N-[6-(thiophene-3-sulfonyl)-5,6,7,8-tetrahydro-pyrido[4,3-d]pyrimidin-2-yl]-benzamide] | 57 |
| CCc1ccc(C(=O)Nc2ncc3c(n2)CCN(S(=O)(=O)c2ccc4c(c2)CN(C(=O)C(F)(F)F)CC4)C3)cc1 [Example 157, 4-ethyl-N-{6-[2-(2,2,2-trifluoro-acetyl)-1,2,3,4-tetrahydro-isoquinoline-7-sulfonyl]-5,6,7,8-tetrahydro-pyrido[4,3-d]pyrimidin-2-yl}-benzamide] | 63 |
| COc1cccc(C(=O)Nc2ncc3c(n2)CCN(C(=O)c2cccc(OC(F)(F)F)c2)C3)c1 [Example 199, 3-methoxy-N-[6-(3-trifluoromethoxy-benzoyl)-5,6,7,8-tetrahydro-pyrido[4,3-d]pyrimidin-2-yl]-benzamide] | 48 |
| O=C(CCc1ccccc1)NC1CCc2nc(NC(=O)c3ccc(F)cc3)ncc2C1 (stereo not shown) [Example 94, 4-fluoro-N-[6-(3-phenyl-propionylamino)-5,6,7,8-tetrahydro-quinazolin-2-yl]-benzamide] | 47 |
